According to patent publication US20230339970A1, “CASEIN KINASE 1 DELTA MODULATORS” (priority 2020, published 2023):

Tests used:
human CSNK1D = molecular target: T1, human CSNK1D (Homo sapiens, UniProt P48730); assay: Whole Cell nBRET CSNK1D Binding Assay; conditions: living CHO cells stably expressing human CSNK1D tagged with nanoluciferase; NanoBret tracer 130 nM; 2 hours at 37 C
T1 construct: expressed in transfected cells

[1] = molecular target: T2, human recombinant GST cleaved CSNK1D (Homo sapiens, UniProt P48730); assay: Purified Enzyme Assay (ADP-Glo CSNK1D Kinase Assay); format: biochemical; conditions: 2 nM CSNK1D; peptide substrate 150 μM; ATP 20 μM; 45 minutes at room temperature
T2 construct: GST (cleaved yes); purchased University of Dundee clone DU 19064
T2 sequence (P48730 whole entry): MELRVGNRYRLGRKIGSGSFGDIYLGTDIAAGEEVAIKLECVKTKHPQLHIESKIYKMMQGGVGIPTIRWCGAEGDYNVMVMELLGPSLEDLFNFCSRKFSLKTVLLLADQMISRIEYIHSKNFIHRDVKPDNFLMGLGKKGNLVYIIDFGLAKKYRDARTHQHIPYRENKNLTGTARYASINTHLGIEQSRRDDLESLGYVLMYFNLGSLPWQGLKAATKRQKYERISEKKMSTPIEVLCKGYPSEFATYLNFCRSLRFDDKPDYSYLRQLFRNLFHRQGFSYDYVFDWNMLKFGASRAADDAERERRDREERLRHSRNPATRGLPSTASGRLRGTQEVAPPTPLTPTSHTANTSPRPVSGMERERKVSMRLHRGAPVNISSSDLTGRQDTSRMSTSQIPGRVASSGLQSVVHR
Method in brief: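 GST-cleaved human recombinant CSNK1D phosphorylates peptide PLSRTL-pS-VASLPGL with ATP; compounds added in dose-response, 45 min at room temperature. ADP formed measured by ADP-Glo luminescence and converted to percent activity.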

T1 sequence (P48730 whole entry): as above

SMILES	IC50 (human CSNK1D) [nM]	IC50 [1] [nM]
Cc1n[nH]c2nccc(-c3c(-c4ccc(F)cn4)nn4c3COC(C)(C)C4)c12 [Example 160, 2-(5-Fluoropyridin-2-yl)-6,6-dimethyl-3-(3-methyl-1H-pyrazolo[3,4-b]pyridin-4-yl)-6,7-dihydro-4H-pyrazolo[5,1-c][1,4]oxazine]	143	9
Cc1cc(-c2c(-c3ccc(F)cc3)nn3c2OCC(C)C3)c2cn[nH]c2n1 (racemic) [Example 192, (R/S)-2-(4-Fluorophenyl)-6-methyl-3-(6-methyl-1H-pyrazolo[3,4-b]pyridin-4-yl)-6,7-dihydro-5H-pyrazolo[5,1-b][1,3]oxazine]	4	1
CC1(C)COc2c(-c3ccnc4[nH]ncc34)c(-c3ccc(F)cc3)nn2C1 [Example 212, 2-(4-Fluorophenyl)-6,6-dimethyl-3-(1H-pyrazolo[3,4-b]pyridin-4-yl)-6,7-dihydro-5H-pyrazolo[5,1-b][1,3]oxazine]	1	< 0.5
Cc1nc(-c2c(-c3ccc(F)cc3)nn3c2CC[C@]2(C3)CC2(F)F)c2cn[nH]c2n1 (single isomer, unassigned) [Example 336, (*R)-2,2-Difluoro-2′-(4-fluorophenyl)-3′-(6-methyl-1H-pyrazolo[3,4-d]pyrimidin-4-yl)-4′,5′-dihydro-7′H-spiro[cyclopropane-1,6′-pyrazolo[1,5-a]pyridine]]	9	1
Fc1ccc(-c2nn3c(c2-c2ccnc4[nH]ncc24)COC2(CC2)C3)nc1 [Example 432, 2-(5-Fluoro-2-pyridyl)-3-(1H-pyrazolo[3,4-b]pyridin-4-yl)spiro[4,7-dihydropyrazolo[5,1-c][1,4]oxazine-6,1′-cyclopropane]]	195	8
Fc1ccc(-c2nn3c(c2-c2c(F)cnc4[nH]ncc24)CCC3)nc1 [Example 221, 5-Fluoro-4-[2-(5-fluoro-2-pyridyl)-5,6-dihydro-4H-pyrrolo[1,2-b]pyrazol-3-yl]-1H-pyrazolo[3,4-b]pyridine]	460	7
C[C@@H]1[C@@H](C)OCc2c(-c3ccnc4[nH]ncc34)c(-c3ccc(F)cn3)nn21 (stereo in doubt) [Example 118, (6*R,7*R)-2-(5-Fluoropyridin-2-yl)-6,7-dimethyl-3-(1H-pyrazolo[3,4-b]pyridin-4-yl)-6,7-dihydro-4H-pyrazolo[5,1-c][1,4]oxazine]	1160	49
Cc1nc2[nH]ncc2c(-c2c(-c3ccc(F)cn3)nn3c2CC2(C3)CC2(F)F)c1F (single isomer, unassigned) [Example 263, (*R)-1′.1′-Difluoro-3-(5-fluoro-6-methyl-1H-pyrazolo[3,4-b]pyridin-4-yl)-2-(5-fluoro-2-pyridyl)spiro[4,6-dihydropyrrolo[1,2-b]pyrazole-5,2′-cyclopropane]]	1460	54
Fc1ccc(-c2nn3c(c2-c2ccnc4[nH]ncc24)CCCC3)nc1 [Example 35, 4-[2-(5-Fluoro-2-pyridyl)-4,5,6,7-tetrahydropyrazolo[1,5-a]pyridin-3-yl]-1H-pyrazolo[3,4-b]pyridine]	374	11
COC1(C)COCc2c(-c3ccnc4[nH]ncc34)c(-c3ccc(F)cn3)nn2C1 (single isomer, unassigned) [Example 486, (*R)-2-(5-Fluoropyridin-2-yl)-7-methoxy-7-methyl-3-(1H-pyrazolo[3,4-b]pyridin-4-yl)-7,8-dihydro-4H,6H-pyrazolo[5,1-c][1,4]oxazepine]	> 10000	763
Fc1ccc(-c2nn3c(c2-c2c(F)cnc4[nH]ncc24)OC[C@@H]2C[C@@H]2C3)nc1 (stereo in doubt) [Example 480, (5a*R,6a*S)-3-(5-Fluoro-1H-pyrazolo[3,4-b]pyridin-4-yl)-2-(5-fluoropyridin-2-yl)-5a,6,6a,7-tetrahydro-5H-cyclopropa[e]pyrazolo[5,1-b][1,3]oxazepine]	228	10
Fc1ccc(-c2nn3c(c2-c2ccnc4[nH]ncc24)C(F)(F)CC3)nc1 [Example 14, 4-(4,4-Difluoro-2-(5-fluoropyridin-2-yl)-5,6-dihydro-4H-pyrrolo[1,2-b]pyrazol-3-yl)-1H-pyrazolo[3,4-b]pyridine]	293	27
C[C@@]1(CF)CCc2c(-c3ccnc4[nH]nc(Cl)c34)c(-c3ccc(F)cn3)nn2C1 (single isomer, unassigned) [Example 291, (*R)-3-Chloro-4-(6-(fluoromethyl)-2-(5-fluoropyridin-2-yl)-6-methyl-4,5,6,7-tetrahydropyrazolo[1,5-a]pyridin-3-yl)-1H-pyrazolo[3,4-b]pyridine]	6	5
CC1(C)COc2c(-c3ccnc4ccsc34)c(-c3ccc(F)cn3)nn2C1 [Example 214, 2-(5-Fluoropyridin-2-yl)-6,6-dimethyl-3-(thieno[3,2-b]pyridin-7-yl)-6,7-dihydro-5H-pyrazolo[5,1-b][1,3]oxazine]	75	9

Next, values leading:

IC50 (human CSNK1D) [nM]	IC50 [1] [nM]	SMILES
81	4	CC1(CF)CCc2c(-c3ccnc(N)c3)c(-c3ccc(F)cn3)nn2C1 (single isomer, unassigned) [Example 286, (*S)-4-[6-(Fluoromethyl)-2-(5-fluoro-2-pyridyl)-6-methyl-5,7-dihydro-4H-pyrazolo[1,5-a]pyridin-3-yl]pyridin-2-amine]
2	1	Cc1cc(-c2c(-c3ccc(F)cc3)nn3c2C[C@H](F)C3)c2cn[nH]c2n1 [Example 12, (S)-4-(5-Fluoro-2-(4-fluorophenyl)-5,6-dihydro-4H-pyrrolo[1,2-b]pyrazol-3-yl)-6-methyl-1H-pyrazolo[3,4-b]pyridine]
6	2	CC1(C)Cn2nc(-c3ccc(F)cn3)c(-c3ccnc(NC(=O)c4ccccc4)c3)c2CO1 [Example 136, N-(4-(2-(5-Fluoropyridin-2-yl)-6,6-dimethyl-6,7-dihydro-4H-pyrazolo[5,1-c][1,4]oxazin-3-yl)pyridin-2-yl)benzamide]
88	8	Cc1nc(-c2c(-c3ccc(F)cc3)nn3c2CCC3)c2cn[nH]c2n1 [Example 225, 4-[2-(4-Fluorophenyl)-5,6-dihydro-4H-pyrrolo[1,2-b]pyrazol-3-yl]-6-methyl-1H-pyrazolo[3,4-d]pyrimidine]
44	3	C[C@@]1(C(F)(F)F)Cn2nc(-c3ccc(F)cn3)c(-c3ccnc4[nH]ncc34)c2CO1 (single isomer, unassigned) [Example 177, (*S)-2-(5-Fluoropyridin-2-yl)-6-methyl-3-(1H-pyrazolo[3,4-b]pyridin-4-yl)-6-(trifluoromethyl)-6,7-dihydro-4H-pyrazolo[5,1-c][1,4]oxazine]
77	8	Fc1ccc(-c2nn3c(c2-c2c(F)cnc4[nH]ccc24)CCCC3)nc1 [Example 34, 5-Fluoro-4-[2-(5-fluoro-2-pyridyl)-4,5,6,7-tetrahydropyrazolo[1,5-a]pyridin-3-yl]-1H-pyrrolo[2,3-b]pyridine]
581	30	CC1COc2c(-c3ccn4nccc4c3)c(-c3ccc(F)cn3)nn2C1 (stereo not drawn) [Example 443, 2-(5-Fluoropyridin-2-yl)-6-methyl-3-(pyrazolo[1,5-a]pyridin-5-yl)-6,7-dihydro-5H-pyrazolo[5,1-b][1,3]oxazine]
71	6	Fc1ccc(-c2nn3c(c2-c2c(F)cnc4[nH]ncc24)CC2(C3)CC2(F)F)nc1 (single isomer, unassigned) [Example 258, (*S)-2,2-Difluoro-3′-(5-fluoro-1H-pyrazolo[3,4-b]pyridin-4-yl)-2′-(5-fluoropyridin-2-yl)-4′H,6′H-spiro[cyclopropane-1,5′-pyrrolo[1,2-b]pyrazole]]
43	4	[2H]C([2H])([2H])C1(C([2H])([2H])[2H])Cn2nc(-c3ccc(F)cn3)c(-c3cc(C)nc4[nH]ncc34)c2CO1 [Example 401, 2-(5-Fluoropyridin-2-yl)-6,6-bis(methyl-d3)-3-(6-methyl-1H-pyrazolo[3,4-b]pyridin-4-yl)-6,7-dihydro-4H-pyrazolo[5,1-c][1,4]oxazine]
85	4	Fc1ccc(-c2nn3c(c2-c2c(F)cnc4[nH]ncc24)CC[C@H]2[C@@H]3C2(F)F)nc1 (single isomer, unassigned) [Example 358, (5a*S,6a*R)-6,6-difluoro-3-(5-fluoro-1H-pyrazolo[3,4-b]pyridin-4-yl)-2-(5-fluoropyridin-2-yl)-5,5a,6,6a-tetrahydro-4H-cyclopropa[e]pyrazolo[1,5-a]pyridine]
181	11	Fc1ccc(-c2nn3c(c2-c2cc(C(F)F)nc4[nH]ncc24)CCC3)nc1 [Example 222, 6-(Difluoromethyl)-4-[2-(5-fluoro-2-pyridyl)-5,6-dihydro-4H-pyrrolo[1,2-b]pyrazol-3-yl]-1H-pyrazolo[3,4-b]pyridine]
371	22	C[C@@H]1Cn2nc(-c3ccc(F)cn3)c(-c3ccnc4[nH]ncc34)c2CO1 (single isomer, unassigned) [Example 85, (*R)-2-(5-Fluoro-2-pyridyl)-6-methyl-3-(1H-pyrazolo[3,4-b]pyridin-4-yl)-6,7-dihydro-4H-pyrazolo[5,1-c][1,4]oxazine]
125	3	COC[C@@]1(C)CCc2c(-c3cc(C)nc4[nH]ncc34)c(-c3ccc(F)cn3)nn2C1 (single isomer, unassigned) [Example 55, (*S)-4-(2-(5-Fluoropyridin-2-yl)-6-(methoxymethyl)-6-methyl-4,5,6,7-tetrahydropyrazolo[1,5-a]pyridin-3-yl)-6-methyl-1H-pyrazolo[3,4-b]pyridine]
